The record followed here is patent US20080004253A1, “Thiazolopyrimidine modulators of TRPV1” (priority 2006, published 2008).

In general, IC50 refers to the concentration at which inhibition is half-maximal. The low end stands for greater potency, the high end for weaker potency.

In one experiment the target is T1, rat TRPV1 (Rattus norvegicus, UniProt O35433).
T1 construct: expressed in transfected cells; host or cells: HEK293 (rTRPV1/HEK293), geneticin selection
Put plainly: Functional assay: block of capsaicin-induced Ca2+ influx, rat assay (rTRPV1/HEK293, FLIPR). It is filed as cell-based. The following applies: rTRPV1/HEK293 cells, capsaicin challenge, Fluo-3 fluorescence; mean; > value = solubility limit in assay medium. The method, then:
(§1) Functional assay: block of capsaicin-induced Ca^2+ influx
(§2) HEK293 cells were transfected with human TRPV1 cloned in pcDNA3.1zeo(+) using the Effectene non-liposomal lipid based transfection kit (Qiagen) (hTRPV1/HEK293). hTRPV1/HEK293 cells were routinely grown as monolayers under selection in zeocin (200 μg/mL; Invitrogen) in Dulbecco's Modified Eagle Medium (DMEM, Gibco BRL) supplemented with 10% fetal bovine serum, and penicillin/streptomycin (50 units/mL) in 5% CO2 at 37° C. Cells were passaged frequently, every 3-5 days, to avoid overgrowth, depletion of essential medium components, or acidic medium exposure. Cells were passaged using a brief wash in 0.05% trypsin with 1 mM EDTA, followed by dissociation in divalent-free phosphate-buffered saline (Hyclone #SH30028.02). […] The assay buffer was composed of 130 mM NaCl, 2 mM KCl, 2 mM MgCl2, 10 mM HEPES, 5 mM glucose, and either 2 mM or 20 μM CaCl2. On the day of the experiment, the culture medium was replaced with 2 mM calcium assay buffer using an automated plate washer (ELx405; Biotek, VT). […] After loading the cells, the dye solution was replaced with 50 μL/well of 20 μM calcium assay buffer using the ELx405 plate washer. Test compounds (50 μL/well) were added to the plate and incubated for 30 min. […] The IC50 values were determined. […] The contents of the wells were mixed 3 times (40 μL mix volume) immediately after the additions were made. Concentration-dependence of block was determined by exposing each well of cells in duplicate rows of a 96-well plate to a serial dilution of test compound. The concentration series usually started at 10 μM with a three-fold serial decrement in concentration. The magnitude of the capsaicin response was determined by measuring the change in fluo3 fluorescence before and 100 seconds after the addition of the agonist. Data were analyzed using a non-linear regression program (Origin; OriginLab, MA).
This assay was performed similarly to the human assay described above, but using HEK293 cells transfected with rat TRPV1 (rTRPV1/HEK293).
(§3) IC50 values shown are the average (mean) of the results obtained. […] Compounds were tested in either the free base or trifluoroacetic acid salt form.

In a further experiment the target is T2, human TRPV1 (Homo sapiens, UniProt Q8NER1).
T2 construct: expressed in transfected cells; host or cells: HEK293 (hTRPV1/HEK293), zeocin selection
Put plainly: Functional assay: block of capsaicin-induced Ca2+ influx, human assay (hTRPV1/HEK293, FLIPR). The format is cell-based. Conditions: hTRPV1/HEK293 cells, 150 nM capsaicin challenge, Fluo-3 fluorescence; mean; > value = solubility limit in assay medium. The method, then:
as §1, §2, §3

T2 sequence (Q8NER1 whole entry): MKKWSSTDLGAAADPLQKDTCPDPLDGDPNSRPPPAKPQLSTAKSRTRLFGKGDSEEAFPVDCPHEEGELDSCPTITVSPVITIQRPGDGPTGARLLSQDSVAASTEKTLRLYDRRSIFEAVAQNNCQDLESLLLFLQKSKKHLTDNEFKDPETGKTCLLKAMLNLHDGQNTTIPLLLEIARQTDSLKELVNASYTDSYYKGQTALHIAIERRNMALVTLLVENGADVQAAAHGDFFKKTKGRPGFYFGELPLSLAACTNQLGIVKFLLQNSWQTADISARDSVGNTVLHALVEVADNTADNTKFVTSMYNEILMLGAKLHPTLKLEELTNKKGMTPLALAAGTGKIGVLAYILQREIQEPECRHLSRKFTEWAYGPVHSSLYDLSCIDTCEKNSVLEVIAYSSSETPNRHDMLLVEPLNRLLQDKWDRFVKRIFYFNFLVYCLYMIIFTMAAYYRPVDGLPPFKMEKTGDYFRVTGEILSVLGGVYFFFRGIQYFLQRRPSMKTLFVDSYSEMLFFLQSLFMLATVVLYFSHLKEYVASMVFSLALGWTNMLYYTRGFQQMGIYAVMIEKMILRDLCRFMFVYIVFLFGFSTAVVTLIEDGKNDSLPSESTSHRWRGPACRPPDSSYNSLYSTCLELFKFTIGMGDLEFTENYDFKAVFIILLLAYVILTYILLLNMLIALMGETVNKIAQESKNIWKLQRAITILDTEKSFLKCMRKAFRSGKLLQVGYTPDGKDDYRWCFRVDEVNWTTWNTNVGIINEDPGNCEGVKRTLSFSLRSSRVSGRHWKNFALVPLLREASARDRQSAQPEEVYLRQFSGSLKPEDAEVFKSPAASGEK
T1 sequence (O35433 whole entry): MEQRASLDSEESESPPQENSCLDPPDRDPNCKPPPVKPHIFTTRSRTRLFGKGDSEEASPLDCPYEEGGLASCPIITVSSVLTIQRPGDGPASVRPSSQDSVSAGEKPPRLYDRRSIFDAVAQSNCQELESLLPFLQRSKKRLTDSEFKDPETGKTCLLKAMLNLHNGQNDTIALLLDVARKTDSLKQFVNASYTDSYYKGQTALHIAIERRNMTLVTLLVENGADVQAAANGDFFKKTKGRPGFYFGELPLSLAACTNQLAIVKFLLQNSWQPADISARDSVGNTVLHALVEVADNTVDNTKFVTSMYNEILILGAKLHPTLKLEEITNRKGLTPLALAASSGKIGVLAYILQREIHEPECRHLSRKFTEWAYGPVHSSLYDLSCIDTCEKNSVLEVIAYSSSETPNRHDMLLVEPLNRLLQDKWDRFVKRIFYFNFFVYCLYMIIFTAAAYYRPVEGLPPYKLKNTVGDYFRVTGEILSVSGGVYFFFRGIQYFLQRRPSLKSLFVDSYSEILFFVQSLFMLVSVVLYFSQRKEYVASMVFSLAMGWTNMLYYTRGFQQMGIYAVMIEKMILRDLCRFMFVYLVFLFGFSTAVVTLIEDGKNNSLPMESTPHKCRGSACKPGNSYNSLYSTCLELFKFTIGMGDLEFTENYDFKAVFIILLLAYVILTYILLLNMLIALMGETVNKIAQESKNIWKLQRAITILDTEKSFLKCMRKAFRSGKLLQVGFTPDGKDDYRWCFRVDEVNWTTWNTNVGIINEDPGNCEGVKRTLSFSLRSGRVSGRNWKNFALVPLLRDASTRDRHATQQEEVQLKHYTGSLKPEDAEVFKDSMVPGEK

Turning to `FC(F)(F)c1ccc(Nc2ncnc3sc(Nc4ccccc4C(F)(F)F)nc23)cc1` [Example 225, N^2-[2-(Trifluoromethyl)phenyl]-N^7-[4-(trifluoromethyl)phenyl][1,3]thiazolo[5,4-d]pyrimidine-2,7-diamine], the half-inhibitory concentration (IC50) at rat TRPV1 was 32 nM; at human TRPV1, 91 nM.

Take `CCc1ccc(Nc2ncnc3sc(Nc4c(C)cccc4C)nc23)cc1` [Example 45, N^2-(2,6-Dimethyl-phenyl)-N^7-(4-ethyl-phenyl)-thiazolo[5,4-d]pyrimidine-2,7-diamine]: the concentration for half-maximal inhibition (IC50) stood at 37 nM on rat TRPV1 and 70 nM against human TRPV1.

As to `FC(F)(F)c1ccc(Nc2ncnc3sc(NC4CCCCC4)nc23)cc1` [Example 232, N^2-Cyclohexyl-N^7-[4-(trifluoromethyl)phenyl][1,3]thiazolo[5,4-d]pyrimidine-2,7-diamine], the figures for the IC50 against rat TRPV1 and at human TRPV1 were 3190 nM and greater than 6670 nM, respectively.

For `CS(=O)(=O)c1ccccc1Nc1nc2c(Nc3ccc(S(=O)(=O)C(F)(F)F)cc3)ncnc2s1` [Example 200, N^2-(2-Methanesulfonyl-phenyl)-N^7-(4-trifluoromethanesulfonyl-phenyl)-thiazolo[5,4-d]pyrimidine-2,7-diamine], the IC50 came out at 874 nM against rat TRPV1 and 386 nM against human TRPV1.

As to `Cc1cccc(C)c1Nc1nc2c(Nc3ccc(S(N)(=O)=O)cc3)ncnc2s1` [Example 44, 4-[2-(2,6-Dimethyl-phenylamino)-thiazolo[5,4-d]pyrimidin-7-ylamino]-benzenesulfonamide], the IC50 against rat TRPV1 was found to be 3620 nM; against human TRPV1, 14700 nM.

As for `CC(C)(O)CNc1nc(Nc2ccc(C(F)(F)F)cc2)c2nc(Nc3c(Cl)cccc3Cl)sc2n1` [Example 251, 1-[2-(2,6-Dichloro-phenylamino)-7-(4-trifluoromethyl-phenylamino)-thiazolo[5,4-d]pyrimidin-5-ylamino]-2-methyl-propan-2-ol], the 50% inhibitory concentration (IC50) worked out at 110 nM against rat TRPV1 and 290 nM on human TRPV1.

`COC[C@H]1CCCN1c1nc(Nc2ccc(C(F)(F)F)cc2)c2nc(Nc3c(Cl)cccc3Cl)sc2n1` [Example 194, (2R)-N^2-(2,6-Dichloro-phenyl)-5-(2-methoxymethyl-pyrrolidin-1-yl)-N^7-(4-trifluoromethyl-phenyl)-thiazolo[5,4-d]pyrimidine-2,7-diamine]: the 50% inhibitory concentration (IC50) at rat TRPV1 came out at 125 nM; on human TRPV1, 133 nM.

On to `Cc1cccc(C)c1Nc1nc2c(Nc3ccc(S(=O)(=O)N(C)C)cc3)ncnc2s1` [Example 98, 4-[2-(2,6-Dimethyl-phenylamino)-thiazolo[5,4-d]pyrimidin-7-ylamino]-N,N-dimethyl-benzenesulfonamide], for which the half-maximal inhibitory concentration (IC50) against rat TRPV1 came out at 7 nM; against human TRPV1, 15 nM.

`CSc1ccc(Nc2nc(C)nc3sc(Nc4c(C)cccc4C)nc23)cc1` [Example 114, N^2-(2,6-Dimethyl-phenyl)-5-methyl-N^7-(4-methylsulfanyl-phenyl)-thiazolo[5,4-d]pyrimidine-2,7-diamine]: the IC50 against rat TRPV1 worked out at 13 nM; against human TRPV1, 39 nM.

`Cc1cccc(C)c1Nc1nc2c(Nc3ccccc3C(F)(F)F)ncnc2s1` [Example 36, N^2-(2,6-Dimethyl-phenyl)-N^7-(2-trifluoromethyl-phenyl)-thiazolo[5,4-d]pyrimidine-2,7-diamine]: the IC50 on rat TRPV1 and against human TRPV1 was greater than 6670 nM throughout.

Consider `Cc1nc(Nc2ccc(OC(F)(F)F)cc2)c2nc(Nc3c(Cl)cccc3Cl)sc2n1` [Example 111, N^2-(2,6-Dichloro-phenyl)-5-methyl-N^7-(4-trifluoromethoxy-phenyl)-thiazolo[5,4-d]pyrimidine-2,7-diamine], for which the IC50 was 16 nM on rat TRPV1 and 36 nM at human TRPV1.

On to `FC(F)(F)c1ccc(Nc2ncnc3sc(Nc4ccccc4C(F)(F)F)nc23)cn1` [Example 219, N^2-[2-(Trifluoromethyl)phenyl]-N^7-[6-(trifluoromethyl)pyridin-3-yl][1,3]thiazolo[5,4-d]pyrimidine-2,7-diamine], for which the figures for the concentration for half-maximal inhibition (IC50) against rat TRPV1 and on human TRPV1 were 76 nM and 104 nM, respectively.

For the compound `Cc1cccc(C)c1Nc1nc2c(Nc3ccc(C(F)(F)F)cc3Cl)ncnc2s1` [Example 167, N^7-(2-Chloro-4-trifluoromethyl-phenyl)-N^2-(2,6-dimethyl-phenyl)-thiazolo[5,4-d]pyrimidine-2,7-diamine], the IC50 on rat TRPV1 and at human TRPV1 was greater than 6670 nM each time.

As for `CSc1nc(Nc2ccc(S(=O)(=O)N(C)C)cc2)c2nc(Nc3c(Cl)cccc3Cl)sc2n1` [Example 127, 4-[2-(2,6-Dichloro-phenylamino)-5-methylsulfanyl-thiazolo[5,4-d]pyrimidin-7-ylamino]-N,N-dimethyl-benzenesulfonamide], the IC50 against rat TRPV1 amounted to 59 nM; at human TRPV1, 138 nM.

Take `CS(=O)(=O)c1ccc(Nc2nc(N3CCOCC3)nc3sc(Nc4c(Cl)cccc4Cl)nc23)cc1` [Example 178, N^2-(2,6-Dichloro-phenyl)-N^7-(4-methanesulfonyl-phenyl)-5-morpholin-4-yl-thiazolo[5,4-d]pyrimidine-2,7-diamine]: the values for the half-maximal inhibitory concentration (IC50) against rat TRPV1 and against human TRPV1 were 60 nM and 287 nM, respectively.

Turning to `Cc1nc(Nc2ccc(C(C)(C)C)cc2)c2nc(Nc3c(Cl)cccc3Cl)sc2n1` [Example 7, N^7-(4-tert-Butyl-phenyl)-N^2-(2,6-dichloro-phenyl)-5-methyl-thiazolo[5,4-d]pyrimidine-2,7-diamine], the IC50 turned out to be 1 nM against rat TRPV1 and 5 nM on human TRPV1.

For the compound `Cc1nc(Nc2ccc(S(=O)(=O)C(C)C)cc2)c2nc(Nc3c(Cl)cccc3Cl)sc2n1` [Example 93, N^2-(2,6-Dichloro-phenyl)-5-methyl-N^7-[4-(propane-2-sulfonyl)-phenyl]-thiazolo[5,4-d]pyrimidine-2,7-diamine], the results for the half-inhibitory concentration (IC50) on rat TRPV1 and at human TRPV1 were 10 nM and 8 nM, respectively.

Regarding `Cc1nc(Nc2ccc(C(C)C)cc2)c2nc(Nc3c(Cl)cccc3Cl)sc2n1` [Example 84, N^2-(2,6-Dichloro-phenyl)-N^7-(4-isopropyl-phenyl)-5-methyl-thiazolo[5,4-d]pyrimidine-2,7-diamine], the concentration for half-maximal inhibition (IC50) on rat TRPV1 is 2 nM; on human TRPV1, 4 nM.

On to `Cc1nc(Nc2ccc(S(C)(=O)=O)cc2)c2nc(Nc3c(C)cccc3C)sc2n1` [Example 95, N^2-(2,6-Dimethyl-phenyl)-N^7-(4-methanesulfonyl-phenyl)-5-methyl-thiazolo[5,4-d]pyrimidine-2,7-diamine], for which the IC50 was 7 nM against rat TRPV1 and 10 nM against human TRPV1.

As to `CSc1ccc(Nc2ncnc3sc(Nc4c(Cl)cccc4Cl)nc23)cc1Cl` [Example 124, N^7-(3-Chloro-4-methylsulfanyl-phenyl)-N^2-(2,6-dichloro-phenyl)-thiazolo[5,4-d]pyrimidine-2,7-diamine], the IC50 at rat TRPV1 worked out at 40 nM; against human TRPV1, 98 nM.

`Cc1nc(Nc2ccc(S(=O)(=O)C(F)(F)F)cc2)c2nc(Nc3c(C)cccc3C)sc2n1` [Example 90, N^2-(2,6-Dimethyl-phenyl)-5-methyl-N^7-(4-trifluoromethanesulfonyl-phenyl)-thiazolo[5,4-d]pyrimidine-2,7-diamine]: the IC50 against rat TRPV1 stood at 15 nM; at human TRPV1, 7 nM.

On to `Cc1cccc(C)c1Nc1nc2c(NC3Cc4ccccc4C3)ncnc2s1` [Example 41, N^2-(2,6-Dimethyl-phenyl)-N^7-indan-2-yl-thiazolo[5,4-d]pyrimidine-2,7-diamine], for which the IC50 was 2040 nM against rat TRPV1 and greater than 6670 nM against human TRPV1.

`Cc1cccc(C)c1Nc1nc2c(Nc3ccc(C(C)(C)C#N)cc3)ncnc2s1` [Example 32, 2-{4-[2-(2,6-Dimethyl-phenylamino)-thiazolo[5,4-d]pyrimidin-7-ylamino]-phenyl}-2-methyl-propionitrile]: the IC50 on rat TRPV1 was 8 nM; against human TRPV1 it was 51 nM.

Take `CC1CCCCN1c1nc(Nc2ccc(S(C)(=O)=O)cc2)c2nc(Nc3c(Cl)cccc3Cl)sc2n1` (racemic) [Example 179, (racemic)-N^2-(2,6-Dichloro-phenyl)-N^7-(4-methanesulfonyl-phenyl)-5-(2-methyl-piperidin-1-yl)-thiazolo[5,4-d]pyrimidine-2,7-diamine]: the values for the half-maximal inhibitory concentration (IC50) on rat TRPV1 and at human TRPV1 were 12 nM and 159 nM, respectively.

Consider `Cc1cccc(C)c1Nc1nc2c(NC3CCC(C(C)(C)C)CC3)ncnc2s1` (single isomer, unassigned) [Example 248, N^7-(4-tert-Butyl-cyclohexyl)-N^2-(2,6-dimethyl-phenyl)-thiazolo[5,4-d]pyrimidine-2,7-diamine], for which the IC50 stood at 240 nM against rat TRPV1 and 1100 nM at human TRPV1.
